Experimental data published in US12194048B2, “Use of pyrrolopyridine derivatives for preventing or treating inflammatory diseases” (VORONOI CO., LTD., priority 2020, dated 2025).

Tests used:
[1] = test system: IMQ-induced psoriasis-like skin inflammation model; assay: Topical treatment in imiquimod (IMQ)-induced psoriasis-like skin inflammation; format: in vivo, BALB/c mice; settings: 0.15% topical; during the study period
Description: Dexamethasone (0.15%), the reference compound, was applied topically at 20 μL/mouse on the right ear once daily (QD) during the same study period.
Fifteen (15) mg imiquimod (IMQ) cream (5%) (Aldara; 3M Pharmaceuticals) was topically administered once daily (QD) on the right ear one hour after treatment from Day 1 to Day 9 for 9 consecutive days, translating to a daily dose of 0.75 mg of the active compound.
Ear swelling was measured on Day 0 and thereafter 30 min before dosing on Days 2, 4, 6 and 8. On Day 10, ear swelling was measured 24 hours after the last dosing.

[2] = test system: IMQ-induced psoriasis-like skin inflammation model; assay: Oral treatment in imiquimod (IMQ)-induced psoriasis-like skin inflammation; format: in vivo, BALB/c mice
Description: The positive control, methotrexate at 2 mg/kg and tofacitinib at 5 mg/kg were administered by oral gavage twice (BID) daily during the same study period.
Fifteen (15) mg Imiquimod (IMQ) cream (5%) (Aldara; 3M Pharmaceuticals) was topically (TOP) administered once daily (QD) on the right ear one hour after treatment from Day 1 to Day 9 for 9 consecutive days, translating to a daily dose of 0.75 mg of the active compound. Ear swelling was measured on Day 0 and thereafter 30 min before dosing on Days 2, 4, 6 and 8. On Day 10, ear swelling was measured 24 hours after the last dosing.

`C[C@@H]1C[C@H]2[C@@H]3CCC4=CC(=O)C=C[C@]4(C)[C@@]3(F)[C@@H](O)C[C@]2(C)[C@@]1(O)C(=O)CO` [dexamethasone, reference compound] was tested, and the body weight [1] was “significant (p<0.05) decrease”.
In the case of `C[C@@H]1CCN(C(=O)CC#N)C[C@@H]1N(C)c1ncnc2[nH]ccc12` [Tofacitinib, tofacitinib], the IMQ-induced ear swelling ([2]; 5 mg/kg oral gavage BID, Day 8 to Day 10) is reported as “significant (p<0.05) inhibition”.
`CN(Cc1cnc2nc(N)nc(N)c2n1)c1ccc(C(=O)N[C@@H](CCC(=O)O)C(=O)O)cc1` [methotrexate] was tested, and the body weight ([2]; 2 mg/kg PO BID×9 days, Day 9 to Day 10) was “significantly decreased” and the IMQ-induced ear swelling ([2]; 2 mg/kg oral gavage BID, Day 8, vs vehicle group) was “significant (p<0.05) effect”.
